Results published in patent publication US7517998B2, “Non nucleoside reverse transcriptase inhibitors” (priority 2004, dated 2009).
pIC50: −log10 of the molar value.

target: T1, K103NNY181C mutant reverse transcriptase (Human immunodeficiency virus type 1 group M subtype B, UniProt P04585, K690N/Y768C); assay: Reverse transcriptase enzymatic assay (PicoGreen), K103N/Y181C mutant RT; assay type: biochemical, HIV-1; conditions: IC50 mut (nM), mutant (K103N/Y181C) reverse transcriptase, enzymatic assay of Example 24
T1 construct: mutations that occur in the reverse transcriptase segment of the pol gene
Procedure, shortened: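 PicoGreen fluorescence (ex 485, em 520 nm) quantified product after EDTA stop. Reaction ran 50 min at 37 °C in pH 7.8 Tris/HCl buffer, 1% DMSO, with poly rC/dG15 template-primer (45/4.5 nM), 3.6 μM dGTP, 2.5 nM enzyme; inhibitor 10 μM–0.508 nM final after 15 min room-temperature pre-incubation.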

Structure (SMILES) | IC50
CC(C)(C)c1ccc(-n2nnnc2SCC(=O)Nc2ccc(NC(=O)CC3CCCC3)cc2Cl)c(Cl)c1 [Compound 7023] | 255 nM
COc1ccccc1CC(=O)Nc1ccc(NC(=O)CSc2nnnn2-c2ccc(C(C)(C)C)cc2Cl)c(Cl)c1 [Compound 7018] | 100 nM
CC(C)(C)c1ccc(-n2nnnc2SCC(=O)Nc2ccc(NS(=O)(=O)Cc3ccccc3)cc2Cl)c(Cl)c1 [Compound 7004] | 272 nM
CCOC(=O)c1ccc(NC(=O)Nc2ccc(NC(=O)CSc3nnnn3-c3ccc(C(C)(C)C)cc3Cl)c(Cl)c2)cc1 [Compound 7006] | 74 nM
CC(C)(C)c1ccc(-n2nnnc2SCC(=O)Nc2ccc(NC(=O)Cc3c[nH]c4ccccc34)cc2Cl)c(Cl)c1 [Compound 7043] | 145 nM

same assay, conditions: IC50 mut, K103N/Y181C mutant reverse transcriptase, enzymatic assay of Example 24

Structure (SMILES) | pIC50
CC(C)(C)c1ccc(-n2nnnc2SCC(=O)Nc2ccc(C#CCCCCO)cc2Cl)c(Cl)c1 [Compound 4003] | 6.19
CC(C)(C#Cc1ccc(NC(=O)CSc2nnnn2-c2cc(C(C)(C)C)cc(Br)c2Cl)c(Cl)c1)C(=O)O [Compound 4219] | 7.01
CC(C)(C#Cc1ccc(NC(=O)CSc2nnnn2-c2ccc(C(C)(C)C)cc2Cl)c(Cl)c1)OCC(=O)NCc1ccco1 [Compound 4037] | 7.18
O=C(CSc1nnnn1-c1ccc(C2CC2)cc1Cl)Nc1ccc(C#CC2(CNCCN3CCCC3)CC2)cc1Cl [Compound 4095] | 7.01
CC(C)(C#Cc1ccc(NC(=O)CSc2nnnn2-c2ccc(C3CC3)cc2Cl)c(Cl)c1)NC(=O)c1ccc[n+]([O-])c1 [Compound 4191] | 8.32
O=C(CSc1nnnn1-c1ccc(C2CC2)cc1Cl)Nc1ccc(C#CC2(CO)CC2)cc1Cl [Compound 4083] | 7.54
CC(C)(C#Cc1ccc(NC(=O)CSc2nnnn2-c2ccc(C3CC3)cc2Cl)c(Cl)c1)NC(=O)C1CC1 [Compound 4079] | 8.17
CC(C)(O)C#Cc1ccc(NC(=O)CSc2nnnn2-c2c(F)ccc(C(F)(F)F)c2Cl)c(Cl)c1 [Compound 4022] | 6.73
CNC(=O)NC(C)(C)C#Cc1ccc(NC(=O)CSc2nnnn2-c2ccc(C3CC3)cc2Cl)c(Cl)c1 [Compound 4071] | 8.06
O=C(CSc1nnnn1-c1ccc(C2CC2)cc1Cl)Nc1ccc(C#CCCN2CCCC2)cc1Cl [Compound 4132] | 7.31
CC(C)(C#Cc1ccc(NC(=O)CSc2nnnn2-c2cccc(Cl)c2Cl)c(Cl)c1)C(=O)O [Compound 4161] | 6.65
CC(C)(C#Cc1ccc(NC(=O)CSc2nnnn2-c2ccc(C3CC3)cc2Cl)c(Cl)c1)OCC(N)=O [Compound 4064] | 7.94
CC(C)(C#Cc1ccc(NC(=O)CSc2nnnn2-c2cc(C(C)(C)C)cc(Br)c2Cl)c(Cl)c1)NC(=O)CN1CCC(C(=O)O)CC1 [Compound 4226] | 7.28
CN(C)CC(=O)NC(C)(C)C#Cc1ccc(NC(=O)CSc2nnnn2-c2cc(C(F)(F)F)ccc2Cl)c(Cl)c1F [Compound 4171] | 7.50
CC(C)(C#Cc1ccc(NC(=O)CSc2nnnn2-c2ccc(C3CC3)cc2Cl)c(Cl)c1)NCC(N)=O [Compound 4231] | 7.80
CN(O)C(=O)COC(C)(C)C#Cc1ccc(NC(=O)CSc2nnnn2-c2ccc(C(C)(C)C)cc2Cl)c(Cl)c1 [Compound 4050] | 7.18
CC(C)(C#Cc1ccc(NC(=O)CSc2nnnn2-c2ccc(C(C)(C)C)cc2Cl)c(Cl)c1)OCC(=O)N1CCOCC1 [Compound 4039] | 7.40
CC(C)Oc1ccc(Cl)c(-n2nnnc2SCC(=O)Nc2ccc(C#CC(C)(C)C(=O)O)cc2Cl)c1 [Compound 4187] | 7.21

same assay, conditions: IC50 mut, mutant reverse transcriptase, enzymatic assay of Example 24

Structure (SMILES) | pIC50
Cc1ccc(-n2nnnc2SCC(=O)Nc2ccc(-c3ccc(CC(N)=O)cc3)cc2Cl)c(Cl)c1 [Compound 2012] | 7.82
COC(=O)c1ccc(-c2ccc(NC(=O)CSc3nnnn3-c3ccc(C)cc3Cl)c(Cl)c2)cc1 [Compound 2001] | 6.88
O=C(CSc1nnnn1-c1ccc(C2CC2)cc1Cl)Nc1ccc(-c2ccc(OCCN3CCS(=O)(=O)CC3)cc2)c(F)c1Cl [Compound 2059] | 7.89
CC(C)(C)c1ccc(-n2nnnc2SCC(=O)Nc2ccc(-c3ccc(OCCN4CC[C@H](O)C4)cc3)cc2Cl)c(Cl)c1 [Compound 2042] | 7.82
Cc1cc(F)c(-n2nnnc2SCC(=O)Nc2ccc(-c3ccc(C(C)(C)C(=O)O)cc3)cc2Cl)c(Cl)c1 [Compound 2026] | 7.32
CC(C)c1ccc(-n2nnnc2SCC(=O)Nc2ccc(-c3ccc(OCCN4CCCC4)cc3)cc2Cl)c(Cl)c1 [Compound 2056] | 7.54
Cc1ccc(-n2c(C)cnc2SCC(=O)Nc2ccc(-c3ccc(CC(=O)O)cc3)cc2Cl)c(Cl)c1 [Compound 1009] | 6.26
CC(CC(=O)O)NC(=O)c1ccc(NC(=O)CSc2nnnn2-c2ccc(C(C)(C)C)cc2Cl)c(Cl)c1 (stereo not shown) [Compound 6015] | 7.41
Cc1ccc(-c2nnsc2SCC(=O)Nc2ccc(-c3ccc(CC(=O)O)cc3)cc2Cl)c(Cl)c1 [Compound 1007] | 6.97
CC(C)(C)c1ccc(-n2nnnc2SCC(=O)Nc2ccc(-c3ccc(OCCn4ccnc4)cc3)cc2Cl)c(Cl)c1 [Compound 2036] | 7.17
CC(C)(C)c1ccc(-n2nnnc2SCC(=O)Nc2ccc(-c3ccc(/C=C/C(=O)O)s3)cc2Cl)c(Cl)c1 [Compound 3031] | 7.81
O=C(COc1ccc(NC(=O)CSc2nnnn2-c2ccc(C3CC3)cc2Cl)c(Cl)c1)NCCc1ccccn1 [Compound 5034] | 6.45
COC(=O)c1ccc(-c2ccc(NC(=O)CSc3nnnn3-c3ccc(C(C)(C)C)cc3Cl)c(Cl)c2)cc1 [Compound 2008] | 7.41
COC(=O)NS(=O)(=O)c1ccc(NC(=O)CSc2nnnn2-c2ccc(C3CC3)cc2Cl)c(Cl)c1 [Compound 3040] | 6.63
CC(C)(C)c1ccc(-n2nnnc2SCC(=O)Nc2ccc(-c3ccc(OCCN4CCC(O)CC4)cc3)cc2Cl)c(Cl)c1 [Compound 2031] | 7.47
Cc1cc(C(F)(F)F)cc(-n2nnnc2SCC(=O)Nc2ccc(-c3ccc(CC(=O)O)cc3)cc2Cl)c1Cl [Compound 2044] | 7.54
Cc1nnc(SCC(=O)Nc2ccc(-c3ccc(OCCN4CCCC4)cc3)cc2Cl)n1-c1ccc(C2CC2)cc1Cl [Compound 1014] | 7.09
Cc1ccc(-n2nnnc2SCC(=O)Nc2ccc(-c3ccc(CC(=O)O)cc3)cc2[N+](=O)[O-])c(Cl)c1 [Compound 2011] | 7.31
CC(C)(NC(=O)c1ccc(NC(=O)CSc2nnnn2-c2ccc(C3CC3)cc2Cl)c(Cl)c1)C(=O)O [Compound 6033] | 6.53
CC(C)(C)c1ccc(-n2nnnc2SCC(=O)Nc2ccc(C(=O)NN3CCOCC3)cc2Cl)c(Cl)c1 [Compound 6007] | 7.52
COC(=O)C=C(C)c1ccc(NC(=O)CSc2nnnn2-c2ccc(C3CC3)cc2Cl)c(Cl)c1 [Compound 3044] | 7.23
CC(C)(C)c1ccc(-n2nnnc2SCC(=O)Nc2ccc(-c3ccc(OCCN4CC[C@@H](O)C4)cc3)cc2Cl)c(Cl)c1 [Compound 2041] | 7.55
CC(C)(C)c1ccc(-n2nnnc2SCC(=O)Nc2ccc(OCC(=O)Nc3cccc(C(=O)O)c3)cc2Cl)c(Cl)c1 [Compound 5022] | 6.97
CNC(=O)NS(=O)(=O)c1ccc(NC(=O)CSc2nnnn2-c2ccc(C3CC3)cc2Cl)c(Cl)c1 [Compound 3039] | 6.57
CC(C)(C)c1ccc(-n2nnnc2SCC(=O)Nc2ccc(-c3ccc(OCCN4CCCC4)cc3)cc2Cl)c(Cl)c1 [Compound 2029] | 7.72
COC(=O)Cc1ccc(-c2ccc(NC(=O)CSc3nnnn3-c3ccc(C)cc3Cl)c([N+](=O)[O-])c2)cc1 [Compound 2010] | 7.40
